In data set [1] the test system is MDA-MB-231 breast cancer cells. Put plainly: MTT cytotoxicity assay, MDA-MB-231 cells. The class given is cell-based, human. Conditions: 24 h incubation, MTT, average of at least three experiments (±SD). How it is done: (§1) The MDA-MB-231 and MCF-7 human breast cancer cells were purchased from ATCC. The MDA-MB-231 and MCF-7 cells were grown in Dulbecco's modified Eagles' medium (DMEM high glucose) (Capricorn Scientific) at 37°C in 5% CO2 supplemented with 10% fetal bovine serum (Capricorn Scientific). HDF cells were purchased from Merck and were grown in the fibroblast growth medium. All cells were adherent in monolayers and, upon confluence, were washed with phosphate buffer saline (PBS) and harvested by digestion with trypsin-EDTA 0.05% (v/v). The cells were suspended and transferred into new, sterile, culture flasks for maintenance or seeded in sterile test microplates for different assays. All cells were manipulated under aseptic conditions in a flow chamber.
(§2) The cells were adherent in monolayers and, upon confluence, were harvested by digestion with trypsin. The cytotoxicity of the complexes against the tumour cells was assessed using the colorimetric assay MTT […], which evaluates the metabolic activity of viable cells. This assay measures the conversion of yellow tetrazolium into purple formazan by an active mitochondrial dehydrogenase in living cells. For this purpose, the cells (10–20 × 10^3 in 200 μL of the medium) were seeded into 96-well plates and incubated in a 5% CO2 incubator at 37°C. The cells were settled for 24 h followed by the addition of a dilution series of the complexes in a medium (200 μL). The complexes were first solubilized in 100% DMSO, given a 10 mM stock solution, and then in a medium within the concentration range of 0.1–100 µM. […] After 24 h of incubation, the treatment solutions were removed by aspiration, and MTT solution (200 μL, 0.5 mg·mL^−1 in PBS) was added to each well. After 3 h at 37°C/5% CO2, the solution was removed, and the purple formazan crystals formed inside the cells were dissolved in DMSO (200 μL) by thorough shaking. The cellular viability was evaluated by measuring the absorbance at 570 nm by using a microplate spectrophotometer. The IC50 values were obtained by dose-response curves using the GraphPad Prism software (vs. 5).
The MDA-MB-231 and MCF-7 human breast cancer cells were purchased from ATCC. MDA-MB-231 and MCF-7 cells were grown in Dulbecco’s modified Eagles’s medium (DMEM high glucose) (Capricorn Scientific) at 37 °C in 5% CO2 supplemented with 10% fetal bovine serum (Capricorn Scientific). All cells were adherent in monolayers and, upon confluence, were washed with phosphate buffer saline (PBS) and harvested by digestion with Trypsin-EDTA 0.05% (v/v). The cells were suspended and transferred into new, sterile, culture flasks, for maintenance or seeded in sterile test microplates for different assays. All cells were manipulated under aseptic conditions in a flow chamber.
The cells were adherent in monolayers and, upon confluency, were harvested by digestion with trypsin. The cytotoxicity of the complexes against the tumour cells was assessed using the colorimetric assay MTT […], which evaluate the metabolic activity of viable cells. This assay measures the conversion of the yellow tetrazolium into purple formazan by an active mitochondrial dehydrogenase in living cells. For this purpose, cells (10-20 × 10^3 in 200 μL of medium) were seeded into 96-well plates and incubated in a 5% CO2 incubator at 37 °C. The cells were settled for 24 h followed by the addition of a dilution series of the complexes in medium (200 μL). The complexes were first solubilized in 100% DMSO, given a 10 mM stock solution, and then in medium within the concentration range of 0.1–100 µM. […] After 24 h of incubation, the treatment solutions were removed by aspiration, and MTT solution (200 μL, 0.5 mg·mL^-1 in PBS) was added to each well. After 3 h at 37 °C/5% CO2, the solution was removed, and the purple formazan crystals formed inside the cells were dissolved in DMSO (200 μL) by thorough shaking. […]

The nature of data set [2]: Stability in DMSO-d6 and DMSO-d6/D2O monitored by 31P{1H} NMR. The class given is physicochemical. The source says: The assessment of the biological properties of the complexes requires their dissolution in a cell culture medium which is mainly constituted by water. When the complex is not hydrosoluble enough, the used protocol contemplates preliminary dissolution in DMSO before the addition to the culture medium. Thus, it is important to determine the stability and behaviour of the complexes in both DMSO and water/DMSO mixtures to check whether different species have been formed when dissolved. Dissolutions in DMSO-d6 and DMSO-d6/D2O of the new complexes 8 and 11 were monitored by ^31P{^1H} NMR over time at room temperature and 37°C. The stability studies of the rest of the complexes (1‐7, 9, 10) were published previously. All experiments were performed by a similar procedure: the complex (0.01 g) was introduced into a 5 mm NMR tube and dissolved in 0.5 mL of degassed solvent (DMSO-d6 and a 1 : 1 mixture of DMSO-d6/D2O). The solution was left at room temperature and monitored by ^31P{^1H} NMR first every 15 minutes, and later in longer periods. Stability was also monitored at incubation cell-based assay temperature (37°C).
All compounds were studied for their stability in 100% DMSO-d6 and DMSO-d6/D2O mixture by using NMR spectroscopy in common aerobic conditions. All experiments were performed by a similar procedure: the complex (0.01 g) was introduced into a 5 mm NMR tube and dissolved in 0.5 mL of degassed solvent (DMSO-d6 and a 1:1 mixture of DMSO-d6/D2O). The solution was left at room temperature and monitored by ^31P{^1H} NMR first every 15 minutes, and later in longer time periods. Stability was also monitored at incubation cell-based assays temperature (37 °C).

Data set [3] deals with MCF-7 breast cancer cells. Put plainly: MTT cytotoxicity assay, MCF-7 cells. The class given is cell-based, human. Conditions: 24 h incubation, average of at least three experiments (±SD). How it is done: as §1
The cells were adherent in monolayers and, upon confluence, were harvested by digestion with trypsin. The cytotoxicity of the complexes against the tumour cells was assessed using the colorimetric assay MTT […], which evaluates the metabolic activity of viable cells. This assay measures the conversion of yellow tetrazolium into purple formazan by an active mitochondrial dehydrogenase in living cells. For this purpose, the cells (10–20 × 10^3 in 200 μL of the medium) were seeded into 96-well plates and incubated in a 5% CO2 incubator at 37°C. The cells were settled for 24 h followed by the addition of a dilution series of the complexes in a medium (200 μL). The complexes were first solubilized in 100% DMSO, given a 10 mM stock solution, and then in a medium within the concentration range of 0.1–100 µM. […] The cellular viability was evaluated by measuring the absorbance at 570 nm by using a microplate spectrophotometer. […]
The cells were adherent in monolayers and, upon confluency, were harvested by digestion with trypsin. The cytotoxicity of the complexes against the tumour cells was assessed using the colorimetric assay MTT […], which evaluate the metabolic activity of viable cells. […]

In data set [4] the test system is normal human fibroblasts (HDF). The data set can be described thus: MTT cytotoxicity assay, normal human dermal fibroblasts. The format is cell-based. On the procedure:
as §1, §2

This is an account of results in PMC10555500, “Evaluation of the Antiproliferative Properties of CpRu Complexes Containing N-Methylated Triazaphosphaadamantane Derivatives” (Bioinorganic Chemistry and Applications, 2023).

A value given as a limit tells only on which side of the number the result lay.

Turning to `CN1CN2CN(C)C[P]([Ru+2]([P](c3ccccc3)(c3ccccc3)c3ccccc3)[P](c3ccccc3)(c3ccccc3)c3ccccc3)(C1)C2.O=S(=O)([O-])C(F)(F)F.[Cl][Pd][Cl].c1cc[cH-]c1` [Compound 11, [RuCp(PPh3)2-µ-dmoPTA-1κP-2κ^2N,N′-PdCl2](CF3SO3)], the IC50 in data set [1] came to 1100 ± 200 nM; in data set [3] it was 730 ± 110 nM; in data set [4] (24 h incubation, MTT, normal human fibroblasts), 1590 ± 450 nM. Moreover, in data set [2] (DMSO-d6, visible after 4 h, constant up to 48 h), the “Fraction converted to complex 8 (solvolysis) in DMSO” value is under 7%. The “Stability in DMSO-d6” value in data set [2] (room temperature and 37°C, 48 h, 31P{1H} NMR) is “very stable”. Further, the “Fold less cytotoxic for fibroblasts (HDF) than for MCF-7 cells” value in data set [4] (selectivity HDF vs MCF-7) is given as 2-3 fold. The “Fold less cytotoxic for fibroblasts (HDF) than for MDA-MB-231 cells” value in data set [4] (selectivity HDF vs MDA-MB-231) is recorded as 1.5 fold.
